Measurements as given in US8367659B2, “Oxazinyl isoflavonoid compounds, medicaments and use” (Marshall Edwards, Inc., priority 2007, dated 2013).
Marks after values point to notes of the source that are not given here.

Experiments:
E-selectin = experiment: TNFα-induced E-selectin expression in human arterial endothelial cells (ELISA); format: cell-based
Protocol: (§1) Inhibition of TNFα-stimulated endothelial cell activation by compounds was assessed by measuring surface expression of cell adhesion molecules with an ELISA method. Human arterial endothelial cells (HAEC) in growth medium (Cell Applications Inc.) were seeded into 96-well plates at a density of 10,000 cells per well. Plates were incubated overnight at 37° C. in a humidified incubator to allow for cells to become confluent. On the morning of the experiment, TNFα (10 μl, 2 ng/ml) was added to each well, which contained 100 μl of medium. Compounds were diluted in DMSO-containing medium (2.5% DMSO) to give a compound concentration of 100 and 300 μM. Compounds were added to wells so that final concentrations were 10 and 30 μM. DMSO-containing medium alone was added to zero concentration control wells. All samples were measured in quadruplicate (4 wells per treatment).
(§2) After incubation with compound, medium was removed and cells were probed with either non-specific IgG or specific mouse antibodies against E-selectin, ICAM or VCAM (BD Biosciences—0.1 μg in 100 μL buffered saline with 10% heat-inactivated human serum). Adhesion molecule expression was detected by addition of sheep anti-mouse antibody/horseradish peroxidase conjugate. […] Optical density was measured at 405 nm with an ELISA reader (Titertek Multiscan, Flow Laboratories). […]

[1] = test system: TXA2 synthesis in RA stimulated U937 cells; experiment: TXA2 synthesis in RA-stimulated U937 cells; format: cell-based, human; conditions: for TXA2 / TXA2 (pg): A23187; for TXA2 (pg): test compound 100 μM
Protocol: (§3) U937 cells were thawed and resuspended in RPM1 and 10% FCS at 2×10^5 cells per ml. The cells were incubated in 5% CO2 at 37° C. and expanded in growing culture to at least 6.4×10^7 total cells. The cells were then resuspended in fresh medium and cultured with […] (RA) at 2×10^5 cells per ml for a further 3 days (72 h). RA treated cells were washed 2× in serum-free RPM and resuspended in serum-free medium at 5×10^6 cells per ml. The cells were aliquotted into Teflon tubes at 1 ml per tube. Working stock solutions of each test compound were prepared at 0.1 mM, 1 mM and 10 mM as described above. For each test compound at each working dilution, 10 μl was added to 1 ml cells to achieve a final concentration of 0 (DMSO alone), 1, 10, and 100 μM for each test compound. Cells were incubated in triplicate with each concentration of test compound for 15 min at 37° C. After 15 min pre-incubation, each 1 ml tube of cells received 5 μl of a […] solution of the calcium ionophore A23187 (to achieve 0.5 μM A23187). Incubation at 37° C. was continued for a further 30 min. After incubation, supernatants were collected by centrifugation at 2000 rpm for 10 min and stored at −20° C. until required for assay.

THP-1 cells = experiment: Cell viability of THP-1 cells in the NFκB assay; format: cell-based, human; conditions: 50 μM and 100 μM
Protocol: In brief, genetically modified THP-1 cells were seeded into wells of a 96-well plate (50×10^3 cells/well) in the presence of RPMI 1640 medium (70 μl). TNFα was added to each well (10 μl) to give a final concentration of 7.5 ng/ml. Dialyzed bovine serum was added (10 μl). Compounds dissolved in DMSO (10 μL) were then added (5 wells for each compound). Each plate contained a no-cell control (4 wells), a no-serum control (4 wells) and two serum controls. Plates were incubated for 5 h at 37° C. to allow for NFκB-stimulated beta-lactamase production. LiveBLAzer™ FRET B/G Substrate (CCF4-AM) substrate was then added to assay. CCF4-AM is a Forster resonance energy transfer (FRET) based substrate for beta-lactamase developed by Invitrogen Corp. Once CCFA-AM enters a cell, it is converted to negatively charged CCF4 by endogenous esterases. Excitation of this substrate at 409 nm leads to efficient FRET between the coumarin and fluorescein moieties, resulting in a green fluorescence detectable at 530 nm. The presence of beta-lactamase leads to cleavage of CCF4 and results in a loss of FRET, resulting in a robust blue fluorescent signal detectable at 460 nm. Thus, activity of beta-lactamase (a marker of NFκB-promoter activity) is measured as a product to substrate ratio (blue/green fluorescence ratio: 460 nm/530 nm). […]

cancer cell lines = experiment: Anti-cancer activity, cancer cell lines tested as a group (MTT); format: cell-based; conditions: read-out: IC50 against all cancer cell lines tested
[2] = test system: PGE2 synthesis in RA-stimulated U937 cells; experiment: PGE2 synthesis in RA-stimulated U937 cells; format: cell-based, human
Protocol: as §3

HT29 = experiment: Anti-cancer activity, HT-29 colon adenocarcinoma cells (MTT); format: cell-based; conditions: Homo sapiens, HT-29, 120 h, 5 days, read-out: IC50 μM, HT29 Colorectal
MM200 = experiment: Anti-cancer activity, MM200 melanoma cells (MTT); format: cell-based; conditions: 120 h; 5 days, MTT
ICAM-1 = experiment: TNFα-induced ICAM-1 expression in human arterial endothelial cells (ELISA); format: cell-based
Protocol: as §1, §2

[3] = TNFα-stimulated HAEC, 4 hrs, FIG. 18
[4] = HAEC, 10 μM found most appropriate for comparing

Compound | inhibition of E-selectin expression (E-selectin; [3]) [%] | TXA2 ([1]; test compound 1 μM) [pg] | TXA2 ([1]; test compound 10 μM) [pg] | TXA2 (pg) [1] | cell viability (THP-1 cells) | IC50 (cancer cell lines) [µM] | PGE2 ([2]; test compound 1 μM, A23187) [pg] | PGE2 ([2]; test compound 10 μM, A23187) [pg] | PGE2 ([2]; test compound 100 μM, A23187) [pg] | IC50 (HT29) [µM] | IC50 (MM200) [µM] | inhibition of ICAM expression (ICAM-1; [3]) | effect on TXA2 synthesis ([1]; 100 μM) | effect on PGE2 synthesis [2] | PGE2 (pg) ([2]; test compound 100 μM, A23187) | effect on TNFα-induced E-selectin expression (E-selectin; [4]) | effect on TNFα-induced ICAM-1 expression (ICAM-1; [4])
Oc1ccc(C2=Cc3cc4c(cc3OC2)OCN(Cc2ccccc2)C4)cc1 [Compound 1, 4-(3-Benzyl-2,3,4,8-tetrahydrochromeno[6,7-e][1,3]oxazin-7-yl)phenol] | > 50 | 48.720 ± 2.927 | 17.421 ± 5.747 | 6.397 ± 0.557^a pg | reduced cell viability | 5 to 20 | 1.431 ± 0.154 | 0.702 ± 0.237 | 0.555 ± 0.064 | 20.6 ± 2.1 | 6.1 ± 1.6 | 10-50% |  |  |  |  | 
CC(c1ccccc1)N1COc2cc3c(cc2C1)C=C(c1ccc(O)cc1)CO3 (centres unmarked) [Compound 2, 4-(3-(1-Phenylethyl)-2,3,4,8-tetrahydrochromeno[6,7-e][1,3]oxazin-7-yl)phenol] |  | 30.680 ± 2.708 | 21.298 ± 0.914 | 2.313 ± 0.113^a pg | reduced cell viability | 5 to 20 | 1.303 ± 0.044 | 0.948 ± 0.111 |  | 11.8 ± 0.7 | 4.76 ± 1.3 |  | inhibit TXA2 synthesis | inhibit PGE2 synthesis | 0.158 ± 0.027^a pg |  | 
Oc1cccc(C2=Cc3ccc(O)cc3OC2)c1 [Compound 37-DHE, 3′,7-dihydroxy-isoflav-3-ene, reference compound] |  |  |  |  |  |  |  |  |  |  |  |  |  |  |  | less pronounced | less pronounced
